Measurements: patent publication US10513511B2, “Aqueous suspension formulation comprising 4-(4-(4-(((3R,5R)-5-((1H-1,2,4-triazol-1-yl)methyl)-5-(2,4-difluoro-phenyl)tetrahydrofuran-3-yl)methoxy)-3-methylphenyl) or a pharmaceutically acceptable salt thereof” (PULMOCIDE LIMITED, priority 2015, dated 2019)
≈ marks a conversion by molar mass, not a printed value. Read-outs that look alike come from different tables or passages of the source.

Key:
Format in all cases: cell-based
[1] = system: Aspergillus fumigatus NCPF7100; assay: Planktonic fungus growth: broth microdilution assay (NCPF7100); conditions: for MIC: Aspergillus fumigatus, NCPF7100, read-out: MIC75 Values against Aspergillus fumigatus isolate NCPF7100
[2] = system: Aspergillus fumigatus L98H (TR34/L98H); assay: Planktonic fungus growth: broth microdilution assay (L98H); conditions: for MIC: Aspergillus fumigatus, read-out: MIC75 Values against Aspergillus fumigatus isolate L98H
Description: (§1) This assay was conducted using a modified method published by EUCAST (Rodriguez-Tudela, et al., 2008). Spores of Aspergillus fumigatus (NCPF2010, NCPF7010 [methionine 220 mutation], NCPF7099 [Glycine G54 mutation]) from Public Health England, Wiltshire; TR34/L98H mutants from St Louis Hospital, Paris, France; TR46/Y121F/T289A mutants from University of Delhi, Delhi, India) were cultured in Sabouraud dextrose agar for 3 days. A stock spore suspension was prepared from a Sabouraud dextrose agar culture by washing with PBS-tween (10 mL; phosphate buffered saline containing 0.05% Tween-20, 100 U/mL penicillin and 100 U/mL streptomycin). The spore count was assessed using a Neubauer haemocytometer and then adjusted to 10^6 spores/mL with PBS. A working suspension of spores (2×10^5 spores/mL) was prepared in filter sterilised, BSA MOPS RPMI-1640 (50 mL; RPMI-1640 containing 2 mM L-glutamine, 0.5% BSA, 2% glucose, 0.165 M MOPS, buffered to pH 7 with NaOH).
(§2) For the assay, BSA MOPS RPMI-1640 (50 μL/well) was added throughout the 384-well plate (Catalogue number 353962, BD Falcon, Oxford, UK) first. Test compounds (0.5 μL DMSO solution) were then added in quadruplicate using an Integra VIAFLO 96 (Integra, Zizers, Switzerland), and mixed well using a plate mixer. Subsequently 50 μL of the working spore suspension prepared above was added to all wells except non-spore control wells. For non-spore control wells, BSA MOPS-RPMI solution (50 μL/well) was added instead. The plate was covered with a plastic lid, and incubated (35° C. with ambient air) for 48 hr. The OD of each well at 530 nm was determined using a multi-scanner (Clariostar: BMG, Buckinghamshire, UK). The percentage inhibition for each well was calculated and the MIC50, MIC75 and MIC90 values were calculated from the concentration-response curve generated for each test compound.

[3] = system: Aspergillus fumigatus TR46 (TR46/Y121F/T289A); assay: Planktonic fungus growth: broth microdilution assay (TR46); conditions: for MIC: Aspergillus fumigatus, read-out: MIC75 Values against Aspergillus fumigatus isolate TR46
Description: as §1, §2

[4] = system: Aspergillus fumigatus NCPF7099; assay: Planktonic fungus growth: broth microdilution assay (NCPF7099)
Description: as §1, §2

[5] = system: Aspergillus fumigatus NCPF2010; assay: Planktonic fungus growth: broth microdilution assay (NCPF2010)
Description: as §1, §2

[6] = system: BEAS2B cells; assay: Cell viability: resazurin assay; conditions: for effect on the viability of BEAS2B bronchial epithelial cells: at concentrations indicated in Table 4
Description: (§3) BEAS2B cells were seeded in 384-well plates (100 μL; 3000/well/; BD Falcon, Catalogue No 353962) in RPMI-LHC8 (RPMI-1640 and LHC8 media combined in equal proportions) one day before experimentation. For cell-free control wells, RPMI-LHC8 (100 μL) was added. Test compounds (0.5 μL of a DMSO solution) were added to give a final DMSO concentration of 0.5% using an Integra VIAFLO 96 (Integra, Zizers, Switzerland). BEAS2B cells were incubated with each test compound for 1 day (37° C./5% CO2 in RPMI-LHC8). After addition of resazurin stock solution (5 μL, 0.04%) the plates were incubated for a further 4 hr (37° C./5% CO2). The fluorescence of each well at 545 nm (excitation) and 590 nm (emission) was determined using a multi-scanner (Clariostar: BMG Labtech). The percentage loss of cell viability was calculated for each well relative to vehicle (0.5% DMSO) treatment. Where appropriate, a CC50 value was calculated from the concentration-response curve generated from the concentration-response curve for each test compound.

[7] = system: Aspergillus fumigatus (azole resistant strain: TR34/L98H); assay: Aspergillus fumigatus infection of human alveoli bilayers (transwells), azole resistant strain; conditions: TR34-L98H, Compound 0.3 μg/mL upper chamber, posaconazole 0.1 μg/mL lower chamber, combination of both
Description: In vitro models of human alveoli, consisting of a bilayer of human alveolar epithelial cells and endothelial cells, were prepared as previously described (Hope et al., 2007). This system allows administration of a test compound to the upper (“air” space) and/or lower (“systemic” space) compartments. This flexibility has been exploited to explore the effects of combination treatment by dosing Compound (I) to the upper chamber and posaconazole or other anti-fungal agents to the lower chamber. Primary human pulmonary artery endothelial cells (HPAEC) were harvested and diluted to 10^6 cells/mL in EGM-2 media (Lonza, Basel, Switzerland). Transwells were inverted and the cell suspension (100 μL/well) applied to the base of each transwell. The inverted transwells were incubated at RT within a flow hood for 2 hr after which they were turned upright. EGM-2 media was added to the lower (700 μL/well) and upper (100 μL/well) compartments and the transwells were incubated for 48 hr (37° C., 5% CO2). The EGM-2 media in the lower compartment was then replaced with fresh EGM-2 media. A549 cells were harvested and diluted to 5×10^5 cells/mL in 10% EBM, then added to the upper compartment (100 μL/well) of all transwells and the plates incubated for 72 hr (37° C., 5% CO2). Conidia of itraconazole sensitive Aspergillus fumigatus s (NCPF2010) and itraconazole resistant (TR34-L98H) strains were cultured separately in Sabouraud dextrose agar for 3 days. A stock conidia suspension of either strain was prepared from a Sabouraud dextrose agar culture by washing with PBS-tween (10 mL; PBS containing 0.05% Tween-20, 100 U/mL Penicillin and 100 U/mL Streptomycin). The conidia count was assessed using a Neubauer haemocytometer and adjusted to 10^6 conidia/mL with PBS. A working stock of conidia was prepared in EBM (10^5 conidia/mL) immediately prior to use.
Test and reference compounds (or neat DMSO as the vehicle) were added to the appropriate wells of 24-well plates (3 μL/well containing 600 μL of 2% FBS EBM) for lower compartment treatment and to 96-well plates (1 μL/well containing 200 μL of 2% FBS EBM) for the treatment of the upper compartment, to provide a final DMSO concentration of 0.5%. The media in the upper compartment was aspirated and that containing the appropriate test and reference compounds, or vehicle, were added (100 μL/well). Transwells were then transferred into the 24-well plate containing the test and reference compounds or DMSO vehicle. After incubation for 1 hr (35° C., 5% CO2) the conidia suspension (10 μL/well) was added to the upper compartment of each transwell. Plates were then incubated for 24 hr (35° C., 5% CO2). Supernatants from each compartment (5 μL/compartment) were collected and stored (−20° C.). Media was replaced daily after collection of the supernatants and all wells were treated with test and reference compounds or with DMSO, as described above, for 3 days. Samples continued to be collected until fungal growth was visible by eye in all transwells. The levels of GM in the supernatant in lower compartment were then measured by ELISA (BioRad, CA, USA) as an index of Aspergillus fumigatus invasion.

[8] = Cell viability: resazurin assay; conditions: human, BEAS2B cells; 1 day incubation, resazurin; n = 3
Description: as §3

[9] = system: Aspergillus fumigatus (NCPF2010); assay: Aspergillus fumigatus infection of BEAS2B bronchial epithelial cells (galactomannan); conditions: NCPF2010, 24 h, read-out: Infection of BEAS2B cells MIC50
Description: BEAS2B cells were seeded in 96-well plates (100 μL; 3×10^4 cells/well; Catalogue No 3596, Sigma Aldrich, Dorset, UK) in 10% FBS RPMI-1640 and were then incubated (37° C., 5% CO2) for one day before experimentation. Test compounds (0.5 μL DMSO solution) or vehicle (DMSO) were added to each well to give a final DMSO concentration of 0.5%. BEAS2B cells were incubated with test compounds for 1 hr (35° C., 5% CO2) before infection with Aspergillus fumigatus (20 uL; Public Health England) conidia suspension (0.5×10^5/mL in 10% FBS RPMI-1640). The plate was incubated for 24 hr (35° C., 5% CO2). Supernatant (50 uL) was collected and transferred to a PCR plate (Catalogue No L1402-9700, Starlab, Milton Keynes, UK), which was frozen (−20° C.) until use. After thawing, supernatant (5 μL) was diluted 1:20 by adding R7-PBS solution (95 μL; 1:4 R7 to PBS; Bio-Rad Laboratories, Redmond, Wash., USA). Galactomannan levels in these samples (50 μL) were measured using Platelia GM-EIA kits (Bio-Rad Laboratories, Redmond, Wash., USA). The percentage inhibition for each well was calculated and the IC50 value was calculated from the concentration-response curve generated for each test compound.

[10] = broth microdilution assay, n = 2-3
[11] = Aspergillus fumigatus, NCPF7099, n = 2-3, read-out: MIC75 Values against Aspergillus fumigatus isolate NCPF7099
[12] = Aspergillus fumigatus, NCPF2010, n = 2-3, read-out: MIC75 Values against Aspergillus fumigatus isolate NCPF2010

| Structure (SMILES) | MIC [1] | MIC [2] | MIC [3] | MIC [4, 11] | MIC [5, 12] | effect on the viability of BEAS2B bronchial epithelial cells [6] | CC50 at 1 day [8] | also measured |
| --- | --- | --- | --- | --- | --- | --- | --- | --- |
| C[C@@H]1[C@H](O)[C@@H](C)/C=C/C=C/C=C/C=C/C=C/C=C/C=C/[C@H](O[C@@H]2O[C@H](C)[C@@H](O)[C@H](N)[C@@H]2O)C[C@@H]2O[C@](O)(C[C@@H](O)C[C@@H](O)[C@H](O)CC[C@@H](O)C[C@@H](O)CC(=O)O[C@H]1C)C[C@H](O)[C@H]2C(=O)O [Amphotericin B, reference compound] |  |  |  |  |  |  |  | MIC75 Values against Aspergillus fumigatus isolate NCPF7100 [1, 10]: 0.523 µM (≈ 0.483 µg/mL); MIC75 Values against Aspergillus fumigatus isolate L98H [2, 10]: 0.195 µM (≈ 0.18 µg/mL); MIC75 Values against Aspergillus fumigatus isolate TR46 [3, 10]: 0.187 µM (≈ 0.173 µg/mL); MIC ([4]; n = 2-3, read-out: MIC75 Values against Aspergillus fumigatus isolate NCPF7099): 0.248 µM (≈ 0.229 µg/mL); MIC ([5]; n = 2-3, read-out: MIC75 Values against Aspergillus fumigatus isolate NCPF2010): 0.407 µM (≈ 0.376 µg/mL); CC50 ([6]; 1 day incubation, resazurin, n = 3): 2.34 µM |
| Cc1cc(N2CCN(c3ccc(C(=O)NC4CCCCC4O)cc3)CC2)ccc1OC[C@@H]1CO[C@@](Cn2cncn2)(c2ccc(F)cc2F)C1 (stereo partly drawn) [Compound (I), 4-(4-(4-(((3R,5R)-5-((1H-1,2,4-triazol-1-yl)methyl)-5-(2,4-difluorophenyl)tetrahydrofuran-3-yl)methoxy)-3-methylphenyl)piperazin-1-yl)-N-(2-hydroxycyclohexyl)benzamide] |  |  |  |  |  |  |  | GM Levels in the Lower Chamber, OD value ([7]; Day 0): 0 OD; GM Levels in the Lower Chamber, % inhibition vs. vehicle control ([7]; Day 1): 98%; GM Levels in the Lower Chamber, OD value ([7]; Day 1): 0.016 OD; GM Levels in the Lower Chamber, % inhibition vs. vehicle control ([7]; Day 2): 24%; GM Levels in the Lower Chamber, OD value ([7]; Day 2): 0.84 OD; GM Levels in the Lower Chamber, % inhibition vs. vehicle control ([7]; Day 3): 4.6%; GM Levels in the Lower Chamber, OD value ([7]; Day 3): 1.01 OD; DFB50: Days taken to reach a fungal burden of 50% of control [7]: 1.53 days |
| Cc1cc(N2CCN(c3ccc(C(=O)N[C@@H]4CCCC[C@H]4O)cc3)CC2)ccc1OC[C@@H]1CO[C@@](Cn2cncn2)(c2ccc(F)cc2F)C1 [Compound (Ib), 4-(4-(4-(((3R,5R)-5-((1H-1,2,4-triazol-1-yl)methyl)-5-(2,4-difluorophenyl)tetrahydrofuran-3-yl)methoxy)-3-methylphenyl)piperazin-1-yl)-N-((1R,2R)-2-hydroxycyclohexyl)benzamide] | 0.0873 µM (≈ 0.06 µg/mL) | 0.303 µM (≈ 0.208 µg/mL) | 0.334 µM (≈ 0.229 µg/mL) | 0.0862 µM (≈ 0.0592 µg/mL) | 0.00802 µM (≈ 0.00551 µg/mL) | no or little effect | > 14.6 µM |  |
| Cc1cc(N2CCN(c3ccc(C(=O)N[C@H]4CCCC[C@H]4O)cc3)CC2)ccc1OC[C@@H]1CO[C@@](Cn2cncn2)(c2ccc(F)cc2F)C1 [Compound (Ic), 4-(4-(4-(((3R,5R)-5-((1H-1,2,4-triazol-1-yl)methyl)-5-(2,4-difluorophenyl)tetrahydrofuran-3-yl)methoxy)-3-methylphenyl)piperazin-1-yl)-N-((1S,2R)-2-hydroxycyclohexyl)benzamide] | 0.0109 µM (≈ 0.00749 µg/mL) | 0.0549 µM (≈ 0.0377 µg/mL) | 0.164 µM (≈ 0.113 µg/mL) | 0.0115 µM (≈ 0.0079 µg/mL) | 0.00227 µM (≈ 0.00156 µg/mL) | no or little effect | > 14.6 µM | MIC50 [9]: 0.00186 µM (≈ 0.00128 µg/mL) |
| Cc1cc(N2CCN(c3ccc(C(=O)N[C@@H]4CCCC[C@@H]4O)cc3)CC2)ccc1OC[C@@H]1CO[C@@](Cn2cncn2)(c2ccc(F)cc2F)C1 [Compound (Id), 4-(4-(4-(((3R,5R)-5-((1H-1,2,4-triazol-1-yl)methyl)-5-(2,4-difluorophenyl)tetrahydrofuran-3-yl)methoxy)-3-methylphenyl)piperazin-1-yl)-N-((1R,2S)-2-hydroxycyclohexyl)benzamide] | 0.0252 µM (≈ 0.0173 µg/mL) | 0.07 µM (≈ 0.0481 µg/mL) | 0.316 µM (≈ 0.217 µg/mL) | 0.0117 µM (≈ 0.00804 µg/mL) | 0.00851 µM (≈ 0.00584 µg/mL) | no or little effect | > 14.6 µM |  |
